{"source": "patent US20230181905A1", "about": "“Systems, Devices, and Methods for Enhancing the Neuroprotective Effects of Non-Invasive Gamma Stimulation with Pharmacological Agents” (Massachusetts Institute of Technology, priority 2021, published 2023)", "key": {"[1]": {"tested_on": "GFAP+ astrocytes", "test": "GFAP+ astrocyte immunohistochemistry", "format": "in vivo, mouse", "details": "5×FAD mice; Plx3397 diet 50 days vs control", "method": "To study how CSF1R-sensitive microglia impact neural activity in the context of AD, an amyloidosis mouse model, the 5×FAD mice—which is a most commonly used mouse model for AD, was subject to a diet containing CSF1R inhibitor Plx3397 for 50 days (FIG. 21A). The CSF1R inhibitor Plx3397 (600 ppm) was employed, which was previously shown to effectively reduce microglia in vivo. Control mice were age-matched 5×FAD litters that received a regular diet. Electrophysiological recordings were performed using linear probes. Post-recording, the recording site in the visual cortex was verified by histology (FIG. 21), and microglia reduction was evaluated by assessing IBA1+ cell numbers.\nAntibodies: IBA1 (Synaptic Systems, Cat #234 004, dilution-1:500; Wako Chemicals, Cat #019-19741, dilution-1:500), GFAP (Thermo Fisher Scientific, Cat #130300, dilution-1:500), MEF2C (Cell Signaling Technology, Cat #5030T), MAC2 (Cedarlane Labs, Cat #CL8942AP, dilution-1:500), vGAT (Synaptic Systems, Cat #131 013, dilution-1:500), vGLUT (Synaptic Systems, Cat #1135 302, dilution-1:500), NeuN (Synaptic Systems, Cat #266 004, dilution-1:1000), MHC2 (EMD Millipore, Cat #MABF33, dilution-1:500), C1q (Abcam, Cat #ab182451, dilution-1:500), synaptophysin (Sigma, Cat #S5768). […]"}, "[2]": {"tested_on": "vGLUT1", "test": "vGLUT1 western blot and puncta, overall and within WFA", "format": "in vivo, mouse", "details": "5×FAD mice", "from_the_text": "It was reasoned that the increased WFA coverage and enhanced phase locking of neurons after these treatments are related. […] WFA has been predominantly observed around interneurons, specifically PV interneurons. vGLUT1 (Synaptic Systems, #1135 302), an excitatory synaptic marker, was labeled with WFA. It was observed that the overall vGLUT1 signal was higher after Plx3397+GENUS treatment in mice (ANOVA, F (3,22)=3,686, P=0.0273) (FIGS. 18A, 18B). WFA was 3D rendered and surface created and examined (vGLUT1) within WFA, and observed increased vGLUT1 within WFA (Nested ANOVA, F (3,29)=3.377, P=0.0493) (FIGS. 18A, 18C).\nvGAT and vGLUT1 puncta: LSM 710, with a 40× objective, was used to acquire the images. The entire […] thickness of the slices was acquired in Z stacks—80 per image (step of 0.5 μm). The spot-count inbuilt function in Imarisx64 9.3 was used to count cells automatically.\nThese observations point to synaptic connectivity, PNN extracellular architecture, and myelination as biological processes that GENUS impacts to improve the outcomes in Plx3397 administered 5×FAD mice. To further validate this, additional biochemical analyses were performed. […]\nThe brain was perfused with PBS and fixed with 4% PFA. […] Signal intensities were quantified using ImageJ 1.46q and normalized to values of loading control."}}}
{"smiles": "FC(F)(F)c1ccc(CNc2ccc(Cc3c[nH]c4ncc(Cl)cc34)cn2)cn1", "note": "[Plx3397, Pexidartinib]", "values": [{"measurement": "GFAP+ astrocytes", "setting": "[1]", "result": "no difference"}, {"measurement": "vGLUT1 level (western blot)", "setting": "[2]; visual cortex, control 100±7.30", "result": "130.1±10.05"}, {"measurement": "vGLUT1 synaptic puncta in the WFA of PV interneurons", "setting": "[2]; controls 313.4±13.20", "result": "332.7±13.14 % of no treatment control"}]}
